{"source": "paper PMC7330163", "about": "(Pharmacology Research & Perspectives, 2020)", "origin": "cited, not measured here", "key": {"CYP3A4": {"system": "CYP3A4", "settings": "man; cited from earlier work"}, "[1]": {"system": "hepatic OATP transporters", "settings": "accumulates in the liver; cited from earlier work"}}, "data": [{"smiles": "COc1ccccc1Oc1c(NS(=O)(=O)c2ccc(C(C)(C)C)cc2)nc(-c2ncccn2)nc1OCCO", "note": "[bosentan]", "values": [{"measurement": "CYP3A4 induction in clinical use", "setting": "CYP3A4", "result": "moderate CYP3A4 inducer"}, {"measurement": "substrate of OATP", "setting": "[1]", "result": "is an OATP substrate"}]}]}
